Reference: the NIST ThermoML archive (doi:10.1007/s10765-005-5566-6)

Experiment: xn = mol fraction of the nth substance listed
Settings: Gas, Hot wire method

C [methane] + O=C=O
Settings | thermal conductivity [W/m/K]
300 K, 724 kPa, x1 = 0.2493 | 0.02096
300 K, 727 kPa, x1 = 0.4994 | 0.02533
300 K, 730 kPa, x1 = 0.7496 | 0.03005
300 K, 1240 kPa, x1 = 0.7496 | 0.03027
300 K, 1241 kPa, x1 = 0.4994 | 0.02556
300 K, 1288 kPa, x1 = 0.2493 | 0.02125
300 K, 1748 kPa, x1 = 0.4994 | 0.02584
300 K, 1770 kPa, x1 = 0.7496 | 0.03051
300 K, 1835 kPa, x1 = 0.2493 | 0.02161
300 K, 2212 kPa, x1 = 0.4994 | 0.02613
300 K, 2245 kPa, x1 = 0.7496 | 0.03082
300 K, 2335 kPa, x1 = 0.2493 | 0.02197
300 K, 2700 kPa, x1 = 0.4994 | 0.02637
300 K, 2740 kPa, x1 = 0.7496 | 0.03109
300 K, 2820 kPa, x1 = 0.2493 | 0.02245
300 K, 3118 kPa, x1 = 0.4994 | 0.02681
300 K, 3220 kPa, x1 = 0.7496 | 0.03153
300 K, 3275 kPa, x1 = 0.2493 | 0.02287
300 K, 3550 kPa, x1 = 0.4994 | 0.02726
300 K, 3680 kPa, x1 = 0.7496 | 0.03188
300 K, 3730 kPa, x1 = 0.2493 | 0.02338
300 K, 4160 kPa, x1 = 0.2493 | 0.02399
300 K, 4160 kPa, x1 = 0.7496 | 0.03236
300 K, 4550 kPa, x1 = 0.2493 | 0.02452
300 K, 4560 kPa, x1 = 0.7496 | 0.03271
300 K, 4660 kPa, x1 = 0.4994 | 0.02839
300 K, 4920 kPa, x1 = 0.2493 | 0.0252
300 K, 5000 kPa, x1 = 0.7496 | 0.03324
300 K, 5670 kPa, x1 = 0.4994 | 0.02959
300 K, 6570 kPa, x1 = 0.4994 | 0.03101
325 K, 793 kPa, x1 = 0.2493 | 0.0234
325 K, 797 kPa, x1 = 0.7496 | 0.03345
325 K, 800 kPa, x1 = 0.4994 | 0.02831
325 K, 1350 kPa, x1 = 0.4994 | 0.02846
325 K, 1358 kPa, x1 = 0.7496 | 0.03366
325 K, 1420 kPa, x1 = 0.2493 | 0.02367
325 K, 1896 kPa, x1 = 0.4994 | 0.02871
325 K, 1920 kPa, x1 = 0.7496 | 0.0339
325 K, 2020 kPa, x1 = 0.2493 | 0.02398
325 K, 2434 kPa, x1 = 0.4994 | 0.02901
325 K, 2465 kPa, x1 = 0.7496 | 0.0342
325 K, 2600 kPa, x1 = 0.2493 | 0.02439
325 K, 2970 kPa, x1 = 0.4994 | 0.02933
325 K, 3020 kPa, x1 = 0.7496 | 0.0345
325 K, 3160 kPa, x1 = 0.2493 | 0.02478
325 K, 3440 kPa, x1 = 0.4994 | 0.02963
325 K, 3520 kPa, x1 = 0.7496 | 0.03477
325 K, 3685 kPa, x1 = 0.2493 | 0.02519
325 K, 3920 kPa, x1 = 0.4994 | 0.02999
325 K, 4040 kPa, x1 = 0.7496 | 0.03529
325 K, 4210 kPa, x1 = 0.2493 | 0.02561
325 K, 4555 kPa, x1 = 0.7496 | 0.03559
325 K, 4690 kPa, x1 = 0.2493 | 0.02615
325 K, 5040 kPa, x1 = 0.7496 | 0.03603
325 K, 5170 kPa, x1 = 0.2493 | 0.02675
325 K, 5200 kPa, x1 = 0.4994 | 0.03111
325 K, 5560 kPa, x1 = 0.7496 | 0.03638
325 K, 5625 kPa, x1 = 0.2493 | 0.02733
325 K, 6380 kPa, x1 = 0.4994 | 0.03222
325 K, 7500 kPa, x1 = 0.4994 | 0.03379
350 K, 860 kPa, x1 = 0.2493 | 0.026
350 K, 862 kPa, x1 = 0.7496 | 0.03707
350 K, 865 kPa, x1 = 0.4994 | 0.03135
350 K, 1310 kPa, x1 = 0.2493 | 0.02615
350 K, 1464 kPa, x1 = 0.4994 | 0.03154
350 K, 1605 kPa, x1 = 0.7496 | 0.03738
350 K, 1750 kPa, x1 = 0.2493 | 0.02631
350 K, 2054 kPa, x1 = 0.4994 | 0.03177
350 K, 2180 kPa, x1 = 0.2493 | 0.02656
350 K, 2340 kPa, x1 = 0.7496 | 0.03766
350 K, 2610 kPa, x1 = 0.2493 | 0.02669
350 K, 2660 kPa, x1 = 0.4994 | 0.03206
350 K, 3020 kPa, x1 = 0.2493 | 0.02694
350 K, 3035 kPa, x1 = 0.7496 | 0.03796
350 K, 3190 kPa, x1 = 0.4994 | 0.03224
350 K, 3440 kPa, x1 = 0.2493 | 0.02718
350 K, 3740 kPa, x1 = 0.7496 | 0.03813
350 K, 3760 kPa, x1 = 0.4994 | 0.03258
350 K, 3840 kPa, x1 = 0.2493 | 0.02747
350 K, 4220 kPa, x1 = 0.2493 | 0.02766
350 K, 4324 kPa, x1 = 0.4994 | 0.03282
350 K, 4410 kPa, x1 = 0.7496 | 0.03855
350 K, 4600 kPa, x1 = 0.2493 | 0.02799
350 K, 5140 kPa, x1 = 0.7496 | 0.039
350 K, 5145 kPa, x1 = 0.4994 | 0.03347
350 K, 5860 kPa, x1 = 0.7496 | 0.03958
350 K, 5920 kPa, x1 = 0.4994 | 0.03401
350 K, 6410 kPa, x1 = 0.7496 | 0.03989
350 K, 6670 kPa, x1 = 0.4994 | 0.03477
350 K, 7080 kPa, x1 = 0.7496 | 0.04053
